Where “and” joins values, the source holds several entries; their conditions need not be identical. Identical values can stand only once.
Columns and labels:
aerobic total count = experiment: Preservative action in bratwurst sausage, aerobic total count; type: cell-based; conditions: Example 11, bratwurst sausage, LAE 0.2 g/kg
Experimental: (3) Determination of Preservative Action in Bratwurst Sausage.
The ingredients for all samples were : minced pork back, underbelly, spices, salt and additives (milk protein, diphosphate, antioxidant (E-300) and flavour enhance (E-621)).
1. On the cutter the minced pork back meat was ground and the ingredients were added in this order: the additives (except the preservative system), the underbelly, the spices and the preservative system (such as the cationic surfactant alone or in combination with other products). Ice was also added for controlling the temperature (maximum 5° C.) of the meat. The mixing time was 12 minutes.
2. The mass was vacuum mixed (92%) for 1 minute.
3. The mixture was stuffed into natural casings. The casings were previously soaked in a salted water solution for 30 minutes.
4. The bratwurst sausages were put in a cooking trolley. Cooking took place in a oven at 80° C. for 1 hour.
5. After cooking, the bratwurst sausages were sprayed with cool water for 5 minutes and put in a cold-storage room (0-5° C., 24 hours).
6. The next day, bratwurst sausages were packed (each packed contained five sausages) and pasteurised at 80° C. for 30 minutes and then. After, they were soaked in cool water for 30 minutes.
7. Finally, the bratwurst sausages were labelled and stored at 5° C. for 90 days.
Samples were analysed (aerobic total count) for up to 90 days. Aerobic total count was analysed by stomaching 25 g of sausage in 225 g of buffered peptone water. Dilutions were made in buffered peptone water. Tryptone Soya Agar was harvested with each dilution and incubated at 35° C. for 48 hours.
Average values in log cfu/g of three samples per treatment and day of analysis were calculated.

[1] = Concentration of LAE in soaked chickpeas (HPLC); type: physicochemical; conditions: Example 13, soaked chickpeas; for Concentration of LAE (HPLC method) expressed as % of initial dose, mean / Concentration of LAE (HPLC method) expressed as % of initial dose: LAE 0.2 g/kg in soaking water; for Concentration of LAE (HPLC method) expressed as % of initial dose, mean: mean of triplicate; for Concentration of LAE (HPLC method) expressed as % of initial dose: samples 1-3, monohydrochloride
Experimental: (4) Determination of Preservative Action in Soaked Chick-peas.
Chickpeas are the principal ingredients in a lot of ready-to-eat meals. Before cooking them, chickpeas have to be soaked in water at room temperature for 24 hours. During this period, fermentation processes may occur and therefore, chickpeas would not be suitable for eating. The soaking process cannot be made at refrigeration temperatures, because the structure of the chickpeas could be damaged.
• 1. Chickpeas were soaked in water for 24 hours at 30° C. and 50% HR (in treated samples preservative was added at this point); and • 2. after 24 hours the chickpeas were strained. Analysis • Samples were analysed (aerobic total count and concentration of the cationic surfactant) by triplicate for 24 hours. • Aerobic total count was analysed by stomaching 25 g of chickpeas in 225 g of buffered peptone water. Dilutions were made in buffered peptone water. Tryptone Soya Agar was harvested with each dilution and incubated at 35° C. for 48 hours. • Average values in log cfu/g of three samples per treatment and day of analysis were calculated. • LAE was analysed by HPLC using an internally validated method.

Aerobes = experiment: Preservative action in cosmetic products (Antimicrobial Effectiveness Testing USP 24th Edition), aerobes; type: cell-based
Text: (§1) (1) Determination of Preservative Action in Cosmetic Products. […] This assay consists of the contamination of the protecting formulations with an inoculum mixture of 10^8 cfu/ml concentration, for each of the micro-organisms, and the determination of the number of viable cells in time. This inoculum mixture is composed of the following microorganisms: [table] The cosmetic composition to be analysed is divided into sterile containers with 50 g of product for each flask. Each container is inoculated with 0.5 ml of inoculum (10^8 cfu/ml). The target concentration is 10^6 cfu/ml, approximately. All the containers are kept at a temperature between 20-25° C. and are protected from light. The level of the microbial contamination is checked at 0 hours, 7 days, 14 days and 28 days. The number of colonies is evaluated by dilution in buffer peptone with the appropriate neutraliser agent of the preservative. The culture media used for counting the microorganisms are: […] (2) Determination of Preservative Action in Chicken Breast. Process of Preparation • 1. Fresh chicken breast was diced to pieces • 2. Brine (8.70% sodium chloride and 4.35% tripolyphosphate in water) was added to the fresh chicken in an amount of 11.5 g brine per 88.5 g meat in the control preparation and 11.5 g brine and 88.4 g meat in the preparations treated with preservative. • 3. Brine and meat were mixed during 15 minutes, in the preparations treated with preservative the preservative was added after 14 minutes in an amount of 0.2 g/kg. • 4. Vacuum refrigerate tumbling was made during 30 minutes. • 5. Samples were vacuum-packed in sterile bags and they were cooked at 85° C. for 30 minutes. • 6. The cooked chicken was refrigerated at 4° C. • 7. The cooked chicken was diced in irregular shapes. • 8. Then, the nuggets were stored at 10° C. in sterile vacuum-packed bags. Analysis

Moulds = experiment: Preservative action in cosmetic products (Antimicrobial Effectiveness Testing USP 24th Edition), moulds; type: cell-based, Aspergillus niger
Text: as §1

[2] = system: inoculated microorganisms; experiment: Preservative action in cosmetic products, overall outcome against the inoculum mixture; type: cell-based; conditions: Example 17, oil in water emulsion with an ionic emulsifier, 0.20 g of LAE/kg
Text: as §1, with “Brine and meat were mixed during 15 minutes, in the preparations treated with preservative the preservative was added after 14 minutes in an amount of 0.2 g/kg. • 4. Vacuum refrigerate tumbling was made during 30 minutes. • 5. Samples were vacuum-packed in sterile bags and they were cooked at 85° C. for 30 minutes. • 6. The cooked chicken was refrigerated at 4° C. • 7. The cooked chicken was diced in irregular shapes. • 8. Then, the nuggets were stored at 10° C. in sterile vacuum-packed bags. Analysis” left out

[3] = Example 10, oil in water emulsion with non-ionic surfactant, 0.2 g/kg, 0 days
[4] = Example 10, oil in water emulsion with non-ionic surfactant, 0.2 g/kg, 7 days
[5] = Example 10, oil in water emulsion with non-ionic surfactant, 0.2 g/kg, 14 days
[6] = Example 12, bath gel, LAE 0.2 g/kg, 0 days
[7] = Example 12, bath gel, LAE 0.2 g/kg, 7 days
[8] = Example 12, bath gel, LAE 0.2 g/kg, 14 days
[9] = Example 15, bath gel, LAE 0.2 g/kg, 0 days
[10] = Example 15, bath gel, LAE 0.2 g/kg, 7 days
[11] = Example 15, bath gel, LAE 0.2 g/kg, 14 days
[12] = Example 17, oil in water emulsion with an ionic emulsifier, 0.20 g of LAE/kg, 0 days
[13] = Example 17, oil in water emulsion with an ionic emulsifier, 0.20 g of LAE/kg, 7 days
[14] = Example 17, oil in water emulsion with an ionic emulsifier, 0.20 g of LAE/kg, 14 days
[15] = Example 19, bath gel, 0.2 g of LAE/kg, 0 days
[16] = Example 19, bath gel, 0.2 g of LAE/kg, 7 days
[17] = Example 19, bath gel, 0.2 g of LAE/kg, 14 days

CCCCCCCCCCCC(=O)N[C@@H](CCCN=C(N)N)C(=O)OCC.Cl [LAE, ethyl ester of the lauramide of the arginine monohydrochloride]
aerobic total count, mean (aerobic total count; day 0, mean of three samples): 2.0 log cfu/g
aerobic total count, mean (aerobic total count; day 15, mean of three samples): 2.0 log cfu/g
aerobic total count, mean (aerobic total count; day 30, mean of three samples): 2.4 log cfu/g
aerobic total count, mean (aerobic total count; day 45, mean of three samples): 2.8 log cfu/g
aerobic total count, mean (aerobic total count; day 60, mean of three samples): 3.4 log cfu/g
aerobic total count, mean (aerobic total count; day 90, mean of three samples): 4.2 log cfu/g
Concentration of LAE (HPLC method) expressed as % of initial dose, mean ([1]; 0 hours): 100 % of initial dose
Concentration of LAE (HPLC method) expressed as % of initial dose ([1]; 0 hours): 100 % of initial dose and 101 % of initial dose
Concentration of LAE (HPLC method) expressed as % of initial dose, mean ([1]; 4 hours): 100 % of initial dose
Concentration of LAE (HPLC method) expressed as % of initial dose ([1]; 4 hours): 101 % of initial dose and 99 % of initial dose and 100 % of initial dose
Concentration of LAE (HPLC method) expressed as % of initial dose, mean ([1]; 8 hours): 98 % of initial dose
Concentration of LAE (HPLC method) expressed as % of initial dose ([1]; 8 hours): 97 % of initial dose and 98 % of initial dose and 99 % of initial dose
Concentration of LAE (HPLC method) expressed as % of initial dose, mean ([1]; 16 hours): 95 % of initial dose
Concentration of LAE (HPLC method) expressed as % of initial dose ([1]; 16 hours): 95 % of initial dose and 96 % of initial dose
Concentration of LAE (HPLC method) expressed as % of initial dose, mean ([1]; 24 hours): 93 % of initial dose
Concentration of LAE (HPLC method) expressed as % of initial dose ([1]; 24 hours): 93 % of initial dose and 92 % of initial dose and 94 % of initial dose
hydrolysis of LAE ([1]; after 24 hours): ~10 % of the original dose
Aerobes count (Aerobes; [3]): 6.2 log cfu/g
Aerobes count (Aerobes; [4]): 3.5 log cfu/g
Aerobes count (Aerobes; [5]): 3.0 log cfu/g
Aerobes count (Aerobes; [6]): 6.2 log cfu/g
Aerobes count (Aerobes; [7]): 4.2 log cfu/g
Aerobes count (Aerobes; [8]): 3.0 log cfu/g
Aerobes count (Aerobes; [9]): 6.1 log cfu/g
Aerobes count (Aerobes; [10]): 3.0 log cfu/g
Aerobes count (Aerobes; [11]): 2.6 log cfu/g
Aerobes count (Aerobes; [12]): 6.1 log cfu/g
Aerobes count (Aerobes; [13]): 4.0 log cfu/g
Aerobes count (Aerobes; [14]): 2.9 log cfu/g
Aerobes count (Aerobes; [15]): 6.0 log cfu/g
Aerobes count (Aerobes; [16]): 3.3 log cfu/g
Aerobes count (Aerobes; [17]): 2.9 log cfu/g
Moulds count (Moulds; [3]): 4.3 log cfu/g
Moulds count (Moulds; [4]): <2.0 log cfu/g
Moulds count (Moulds; [5]): <2.0 log cfu/g
Moulds count (Moulds; [6]): 4.5 log cfu/g
Moulds count (Moulds; [7]): 2.3 log cfu/g
Moulds count (Moulds; [8]): <2.0 log cfu/g
Moulds count (Moulds; [9]): 4.1 log cfu/g
Moulds count (Moulds; [10]): <2.0 log cfu/g
Moulds count (Moulds; [11]): <2.0 log cfu/g
Moulds count (Moulds; [12]): 4.1 log cfu/g
Moulds count (Moulds; [13]): 2.9 log cfu/g
Moulds count (Moulds; [14]): <2.0 log cfu/g
Moulds count (Moulds; [15]): 4.1 log cfu/g
Moulds count (Moulds; [16]): 2.0 log cfu/g
Moulds count (Moulds; [17]): <2.0 log cfu/g
preservation outcome [2]: effectively preserved
